# Laboratory results as given in patent US20080206311A1, “Sucrase Activity Inhibitor, Glucoamylase Activity Inhibitor and Food and Feed Containing the Same” (MITSUI SUGAR CO., LTD., priority 2005, published 2008).
# Tests used:
# [1] = biological target: T1, lactase (Rattus norvegicus, UniProt Q02401); test: Lactase activity inhibition with rat small-intestinal enzyme liquid, substrate lactose; type: biochemical; details: 5% lactose + 5% test sample
# T1 construct: tissue Sigma Corporation; host or cells: rat small intestine (acetone powder), buffer extract, unpurified
# T1 sequence (Q02401 868-1928): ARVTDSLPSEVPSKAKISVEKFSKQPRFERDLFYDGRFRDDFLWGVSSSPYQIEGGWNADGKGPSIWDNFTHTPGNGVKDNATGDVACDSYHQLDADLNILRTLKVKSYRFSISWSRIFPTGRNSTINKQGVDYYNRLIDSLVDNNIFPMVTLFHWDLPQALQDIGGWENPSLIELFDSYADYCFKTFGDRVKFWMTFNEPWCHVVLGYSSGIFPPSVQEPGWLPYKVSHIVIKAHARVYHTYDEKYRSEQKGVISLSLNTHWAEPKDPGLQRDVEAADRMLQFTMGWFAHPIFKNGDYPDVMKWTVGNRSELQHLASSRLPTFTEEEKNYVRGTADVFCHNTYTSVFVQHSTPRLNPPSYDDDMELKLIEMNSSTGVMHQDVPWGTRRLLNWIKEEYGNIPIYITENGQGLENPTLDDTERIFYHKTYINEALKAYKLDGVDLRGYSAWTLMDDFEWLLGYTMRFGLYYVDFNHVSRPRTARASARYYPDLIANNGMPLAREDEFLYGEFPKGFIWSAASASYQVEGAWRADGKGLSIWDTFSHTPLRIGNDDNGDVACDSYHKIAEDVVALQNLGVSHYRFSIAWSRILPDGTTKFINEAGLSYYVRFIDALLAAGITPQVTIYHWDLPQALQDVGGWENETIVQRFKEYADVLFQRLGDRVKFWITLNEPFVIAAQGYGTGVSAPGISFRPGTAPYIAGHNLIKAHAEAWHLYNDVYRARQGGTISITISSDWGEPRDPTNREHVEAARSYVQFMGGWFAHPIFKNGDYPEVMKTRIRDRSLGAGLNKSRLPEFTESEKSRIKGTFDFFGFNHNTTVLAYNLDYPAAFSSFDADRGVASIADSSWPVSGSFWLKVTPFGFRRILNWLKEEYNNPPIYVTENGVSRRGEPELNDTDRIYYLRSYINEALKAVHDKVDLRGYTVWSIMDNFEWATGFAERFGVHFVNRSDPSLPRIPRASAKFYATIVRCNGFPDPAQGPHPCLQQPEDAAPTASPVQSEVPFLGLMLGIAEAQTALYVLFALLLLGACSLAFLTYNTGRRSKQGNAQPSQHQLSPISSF
# Description: (§1) Two grams of rat small-intestinal acetone powder (ex Sigma Corporation) were dissolved in 20 ml of 0.1 M phosphate buffer (pH 6.8), left standing one day at 5° C., and subsequently subjected to centrifugal separation (8000 rpm×15 min.). The supernatant was filtered through a 0.8 μm membrane filter to obtain a small-intestinal enzyme liquid. This liquid contained a mixture of enzymes present in small intestine, such as sucrose, glucoamylase, maltase, and isomaltase.
# Each 0.25 ml of the small-intestinal enzyme liquid was added to each 5 ml of Solutions 1 through 5 and placed in a water bath at 37° C. to allow them to react for 60 min. while shaken at 60 strokes/min. After the reaction, they were heated in a boiling water bath for 3 min. for inactivation of the enzymes.
# (§2) The glucose concentration in each solution after the reaction was measured using the F-kit Glucose (ex Roche). A liberated glucose concentration (g/l) was calculated by subtracting the blank value (0.1 M phosphate buffer alone) and the concentration of glucose originally contained in the test sample from each glucose concentration measured.
# Next, each of the liberated glucose concentration was input in the following equation to obtain decomposition inhibition ratio for maltase and sucrose. In the present tests, the substrates and the inhibitors were decomposed by enzymes present in the small-intestinal enzyme liquid. However, the enzymes decomposing the substrates are different from the enzymes decomposing the inhibitors. The decomposition inhibition ratio was determined as a measure for the inhibitory effect. When the inhibitor was added, the glucose concentration was lower than that seen when the substrate alone was reacted. A higher decomposition inhibition ratio means a stronger inhibitory effect.
# Decomposition inhibition ratio,%={(A+B)−(AB)}+(A+B)×100 [Equation 1]
# wherein (A+B) indicates a sum of a liberated glucose concentration in the control solution containing the test sample alone after the reaction (A) and a liberated glucose concentration in the control solution containing the substrate alone after the reaction (B); and (AB) indicates a liberated glucose concentration in the test solution containing the test sample (A) and the substrate (B), after the reaction.
# The procedures in Example 1 were repeated with the exception that palatinit, palatinose or isomaltose was used as a test sample and lactose was used as a substrate. The test samples and the substrate were dissolved in 0.1 M phosphate buffer (pH 6.8) to attain the concentration shown in Table 5 to thereby prepare three test solutions. Besides, each of the test samples or the substrate was dissolved in 0.1 M phosphate buffer (pH 6.8) to attain the concentration shown in Table 5 to thereby prepare control solutions. Each 5 ml of the aforementioned test solutions and the control solutions was subjected to the enzymatic reaction according to the same procedures as in Example 1. The glucose concentration, the fructose concentration and the galactose concentration were measured. The galactose concentration was measured using F-kit Galactose (ex Roche). The liberated galactose concentration, g/l, was calculated by subtracting the blank value (0.1 M phosphate buffer alone) from the measured galactose concentration.
# [2] = tested on: maltase; test: Maltase activity inhibition with rat small-intestinal enzyme liquid, substrate maltose; type: biochemical; details: 5% maltose + 5% test sample
# Description: Palatinose (trade name: Palatinose IC, ex Shin Mitsui Sugar Co., Ltd.) (test sample) was used as a sample for investigating each enzyme activity inhibitory effect. Maltose and sucrose were used as substrates for maltase and sucrose, respectively. The test sample and the substrates were dissolved in 0.1 M phosphate buffer (pH 6.8) at the concentration shown in Table 1 below to prepare test solutions (Solutions 4 and 5). Also, the test sample or the substrates were dissolved in 0.1 M phosphate buffer (pH 6.8), respectively to at the concentration shown in Table 1 below to prepare control solutions (Solution 1 for the test sample and Solutions 2 and 3 for the substrates).
# as §1, with “isomaltase. […]” for “isomaltase.”
# as §2
# Next, each of the liberated glucose concentration was input in the following equation to obtain decomposition inhibition ratio for maltase and sucrose. […] The decomposition inhibition ratio was determined as a measure for the inhibitory effect. […]
# Each 5 ml of the aforementioned test solutions and control solutions was subjected to the enzymatic reaction in the same procedures as in Example 1. The liberated glucose concentration, the decomposition inhibition ratio for maltase and the decomposition inhibition ratio for sucrose were calculated for each solution after the reaction.
structure (smiles),measurement,setting,value
"OC[C@H]1O[C@H](OC[C@H]2OC(O)(CO)[C@@H](O)[C@@H]2O)[C@H](O)[C@@H](O)[C@@H]1O (some centres unmarked) [palatinose, isomaltulose]","Decomposition inhibition ratio, %, against lactase",[1],3%
same,Lactase activity inhibitory effect (in words),[1],no lactose inhibitory effect was appreciable
same,Liberated fructose concentration,[1],0.23 g/L
same,Liberated galactose concentration,[1],0.12 g/L
same,Liberated glucose concentration,[1],0.33 g/L
same,Maltase activity inhibitory effect (in words),[2],has a maltase activity inhibitory effect
same,Liberated glucose concentration,"[2]; 37° C., 60 min",4.757 ± 0.342 g/L
same,"Decomposition inhibition ratio, %, against maltase",[2]; Equation 1,6%
